According to PMC9854573, “Baicalein Attenuates Brain Iron Accumulation through Protecting Aconitase 1 from Oxidative Stress in Rotenone-Induced Parkinson’s Disease in Rats” (Antioxidants, 2022):

Columns and labels:
[1] = target: T1, ACO1 (aconitase activity of rat heart homogenate supernatant); test: aconitase activity, absorbance of aconitate at […] nm; assay type: biochemical; conditions: 10 min preincubation, citrate 4 μM, 100 μg protein, Tris-HCl 20 mM pH 7.4, room temperature, no oxidant
T1 construct: crude rat heart homogenate, 12,000 x g supernatant

[2] = target: T2, ACO1 (recombinant human ACO1 protein) (Homo sapiens, UniProt P21399); test: surface plasmon resonance (Biacore X100, CM5 chip); assay type: binding
T2 construct: immobilised on CM5 chip at pH 4.0
T2 sequence (P21399 1-889): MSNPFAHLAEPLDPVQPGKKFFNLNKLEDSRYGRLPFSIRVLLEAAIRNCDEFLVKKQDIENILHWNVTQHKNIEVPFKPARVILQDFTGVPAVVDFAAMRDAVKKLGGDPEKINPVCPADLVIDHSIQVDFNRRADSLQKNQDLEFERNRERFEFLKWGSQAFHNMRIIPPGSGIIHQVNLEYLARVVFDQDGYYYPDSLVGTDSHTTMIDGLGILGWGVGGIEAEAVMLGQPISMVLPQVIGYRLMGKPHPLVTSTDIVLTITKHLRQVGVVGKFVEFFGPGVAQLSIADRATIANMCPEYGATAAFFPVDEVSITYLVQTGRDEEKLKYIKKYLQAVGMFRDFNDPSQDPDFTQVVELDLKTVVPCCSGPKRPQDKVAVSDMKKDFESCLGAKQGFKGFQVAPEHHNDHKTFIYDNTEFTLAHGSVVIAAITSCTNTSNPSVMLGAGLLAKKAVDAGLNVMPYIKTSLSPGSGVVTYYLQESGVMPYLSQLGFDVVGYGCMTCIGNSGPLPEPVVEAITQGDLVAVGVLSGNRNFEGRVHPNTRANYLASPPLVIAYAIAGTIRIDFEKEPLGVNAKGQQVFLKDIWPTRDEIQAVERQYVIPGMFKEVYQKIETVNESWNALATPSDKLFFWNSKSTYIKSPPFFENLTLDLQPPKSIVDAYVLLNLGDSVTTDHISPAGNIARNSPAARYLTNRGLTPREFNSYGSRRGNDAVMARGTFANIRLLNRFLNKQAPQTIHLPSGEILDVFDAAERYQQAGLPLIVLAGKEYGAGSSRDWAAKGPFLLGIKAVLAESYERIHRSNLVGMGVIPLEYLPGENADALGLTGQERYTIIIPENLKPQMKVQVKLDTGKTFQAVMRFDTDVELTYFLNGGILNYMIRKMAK

IC50 [1]: 166 µM
Kd [2]: 198 µM
SMILES: O=c1cc(-c2ccccc2)oc2cc(O)c(O)c(O)c12 [baicalein, 5,6,7-trihydroxyflavone]
